Assay results: US12398118B2, “Rho-associated protein kinase inhibitor, pharmaceutical composition comprising same, and use thereof” (BEIJING TIDE PHARMACEUTICAL CO., LTD., priority 2018, dated 2025)

Key:
ROCK1 = ROCK1 (Homo sapiens (Human), UniProt Q13464); experiment: ROCK1 kinase IC50, biological test method similar to ROCK2 assay; type: biochemical
Procedure: (§1) The kinase IC50 was determined by a commercialized CISBIO kinase detection kit, HTRF KinEASE-STK S2 kit (62ST2PEC). ROCK2 (01-119) employed in the reaction was purchased from Carna Biosciences.
(§2) Before the assay, the following working solutions as needed were formulated with corresponding reagents according to the instruction of the kinase detection kit: 1×kinase buffer, 5×STK-S2 substrate working solution (1.5 μM) and 5×ATP working solution (1.5 μM), 5×ROCK2 kinase working solution, 4×Streptavidin-XL665 working solution, and 4×STK-Ab-Cryptate 2 detection solution. Then the assay was performed according to the following procedure.
(§3) A solution of a compound at a concentration of 10000 nM was prepared with the 1×kinase buffer containing 2.5% DMSO. Gradient dilution of the solution of the compound was performed with the kinase buffer containing DMSO, so as to obtain solutions of a test compound at 9 different concentrations. In addition to wells of test compounds, a positive well (containing all the reagents except the compound) and a negative well (containing all the reagents except the test compound and kinase) were set. Except for the control wells (positive and negative wells), a solution of a test compound (4 μL) was added to each of the reaction wells, and a solution of 2.5% DMSO was added to the control wells. Then the substrate (2 μM, i.e., 2 μL 5×STK-S2 substrate working solution) was added to each of the reaction wells. The 5×ROCK2 kinase working solution (2 μL, containing 1.4 ng ROCK2 kinase) was added to each of the reaction wells except for the negative well, the volume of which was made up with the 1×kinase buffer (2 μL). The 5×ATP working solution (2 μL) was added to each of the reaction wells, and the mixtures were incubated at room temperature for 2 hours. After the kinase reaction was complete, the 4×Streptavidin-XL665 working solution was added to each of the reaction wells, the solutions were mixed, followed by immediate addition of the 4×STK-Ab-Cryptate 2 detection solution (5 μL), and the mixtures were incubated at room temperature for 1 hour. The fluorescence signal was read on ENVISION (Perkinelmer) (excitation wavelength: 320 inn, and emission wavelength: 665 nm and 615 nm). The inhibitory rate in each well was calculated based on the fluorescence intensity value: ER (Emission Ratio)_(fluorescence intensity at 665 nm/fluorescence intensity at 615 nm); inhibitory rate=(ERpositive−ERtest compound)/(ERpositive−ERnegative)*100%. Curves were plotted and fitted to obtain the median inhibitory concentration (IC50) of each teat compound with the PRISM 5.0 software. According to a biological test method similar to the above, the IC50 values of the compounds on ROCK1 were also tested.

ROCK2 = ROCK2 (Homo sapiens, UniProt O75116); experiment: ROCK2 kinase IC50, HTRF KinEASE-STK S2 kit; type: biochemical; conditions: 2 hours at room temperature
Procedure: as §1, §2, §3

Sequence of ROCK2 (O75116 whole entry, looked up): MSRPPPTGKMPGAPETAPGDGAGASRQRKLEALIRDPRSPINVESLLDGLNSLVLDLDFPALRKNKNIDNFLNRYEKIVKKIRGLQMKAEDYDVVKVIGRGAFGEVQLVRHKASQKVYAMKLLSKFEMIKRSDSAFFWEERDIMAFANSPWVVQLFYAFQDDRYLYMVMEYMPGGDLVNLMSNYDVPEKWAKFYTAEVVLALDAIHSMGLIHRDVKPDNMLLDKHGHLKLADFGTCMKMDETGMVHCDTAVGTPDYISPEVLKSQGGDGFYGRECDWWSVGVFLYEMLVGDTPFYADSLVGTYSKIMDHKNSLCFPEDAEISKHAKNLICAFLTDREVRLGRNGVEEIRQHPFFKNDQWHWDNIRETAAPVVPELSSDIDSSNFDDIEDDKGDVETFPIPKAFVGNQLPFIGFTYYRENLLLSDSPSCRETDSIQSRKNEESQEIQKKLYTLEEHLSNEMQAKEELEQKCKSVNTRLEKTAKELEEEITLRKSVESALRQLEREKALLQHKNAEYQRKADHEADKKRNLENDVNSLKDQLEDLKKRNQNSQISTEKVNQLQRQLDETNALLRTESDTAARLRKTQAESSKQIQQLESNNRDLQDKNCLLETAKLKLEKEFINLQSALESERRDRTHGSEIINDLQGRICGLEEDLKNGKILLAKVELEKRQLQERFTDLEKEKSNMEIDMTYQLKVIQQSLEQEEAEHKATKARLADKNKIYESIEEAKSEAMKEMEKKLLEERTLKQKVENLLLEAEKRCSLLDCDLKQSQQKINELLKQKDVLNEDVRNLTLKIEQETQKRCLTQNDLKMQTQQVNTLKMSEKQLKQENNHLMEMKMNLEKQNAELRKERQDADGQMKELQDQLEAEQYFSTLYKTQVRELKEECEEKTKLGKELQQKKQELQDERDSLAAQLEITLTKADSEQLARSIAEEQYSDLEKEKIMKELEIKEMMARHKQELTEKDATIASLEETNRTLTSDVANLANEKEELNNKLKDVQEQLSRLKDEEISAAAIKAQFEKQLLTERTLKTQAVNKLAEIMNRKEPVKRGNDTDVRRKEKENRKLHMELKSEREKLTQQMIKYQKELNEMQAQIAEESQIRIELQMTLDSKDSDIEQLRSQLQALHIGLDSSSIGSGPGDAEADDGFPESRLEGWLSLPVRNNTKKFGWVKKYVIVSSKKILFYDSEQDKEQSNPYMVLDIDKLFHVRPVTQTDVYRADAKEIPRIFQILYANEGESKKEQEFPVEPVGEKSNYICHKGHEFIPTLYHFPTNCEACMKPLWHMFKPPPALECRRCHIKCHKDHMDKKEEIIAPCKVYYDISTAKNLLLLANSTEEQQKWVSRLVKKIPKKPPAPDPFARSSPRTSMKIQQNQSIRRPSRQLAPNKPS
Sequence of ROCK1 (Q13464 whole entry, species assumed): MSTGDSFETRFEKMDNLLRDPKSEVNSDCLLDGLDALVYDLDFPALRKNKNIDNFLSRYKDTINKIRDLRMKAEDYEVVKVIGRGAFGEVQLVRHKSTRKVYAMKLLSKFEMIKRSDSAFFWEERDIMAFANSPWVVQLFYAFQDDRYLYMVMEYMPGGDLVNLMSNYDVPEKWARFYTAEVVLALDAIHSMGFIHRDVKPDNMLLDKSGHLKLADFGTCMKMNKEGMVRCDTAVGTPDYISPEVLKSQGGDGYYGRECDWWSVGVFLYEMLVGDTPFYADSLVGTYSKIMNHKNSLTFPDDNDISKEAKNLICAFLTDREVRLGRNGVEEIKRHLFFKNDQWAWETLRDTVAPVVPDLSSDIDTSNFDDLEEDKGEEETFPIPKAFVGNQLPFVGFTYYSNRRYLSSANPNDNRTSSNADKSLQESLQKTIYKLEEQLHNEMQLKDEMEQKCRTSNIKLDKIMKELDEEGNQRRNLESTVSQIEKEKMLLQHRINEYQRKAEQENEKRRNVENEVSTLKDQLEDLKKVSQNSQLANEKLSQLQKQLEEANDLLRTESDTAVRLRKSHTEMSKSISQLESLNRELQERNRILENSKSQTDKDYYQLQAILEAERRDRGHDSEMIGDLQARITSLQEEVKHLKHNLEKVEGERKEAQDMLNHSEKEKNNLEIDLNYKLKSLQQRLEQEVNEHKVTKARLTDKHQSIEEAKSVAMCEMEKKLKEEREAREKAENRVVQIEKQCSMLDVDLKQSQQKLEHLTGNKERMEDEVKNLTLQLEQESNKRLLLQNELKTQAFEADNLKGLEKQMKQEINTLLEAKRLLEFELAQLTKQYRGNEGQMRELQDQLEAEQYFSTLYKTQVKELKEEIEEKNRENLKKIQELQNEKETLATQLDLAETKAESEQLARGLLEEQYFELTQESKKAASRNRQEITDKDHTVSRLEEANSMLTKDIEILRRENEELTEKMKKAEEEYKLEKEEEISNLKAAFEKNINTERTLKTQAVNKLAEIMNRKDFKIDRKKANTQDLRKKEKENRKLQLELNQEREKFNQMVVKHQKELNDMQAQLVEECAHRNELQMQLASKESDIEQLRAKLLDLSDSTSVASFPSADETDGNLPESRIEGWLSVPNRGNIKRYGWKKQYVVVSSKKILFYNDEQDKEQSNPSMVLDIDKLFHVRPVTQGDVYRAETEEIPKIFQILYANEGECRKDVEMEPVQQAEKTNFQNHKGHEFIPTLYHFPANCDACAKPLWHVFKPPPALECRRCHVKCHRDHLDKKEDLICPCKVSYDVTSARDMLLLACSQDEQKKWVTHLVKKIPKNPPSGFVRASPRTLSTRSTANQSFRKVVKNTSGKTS

SMILES	IC50 (ROCK1) [µM]	IC50 (ROCK2) [µM]
CC(CC(=O)N1Cc2ccc(-c3ncc(F)c(Nc4ccc5c(=O)[nH]ccc5c4)n3)cc2C1)C(F)(F)F (centres unmarked) [C37, 6-((5-fluoro-2-(2-(4,4,4-trifluoro-3-methylbutanoyl)isoindolin-5-yl)pyrimidin-4-yl)amino)isoquinolin-1(2H)-one]	> 10	0.117
Cn1c(C(=O)N2CC(F)(F)C2)cc2ccc(-c3nccc(Nc4ccc5c(N)nccc5c4)n3)cc21 [C38, (6-(4-((1-aminoisoquinolin-6-yl)amino)pyrimidin-2-yl)-1-methyl-1H-indol-2-yl)(3,3-difluoroazetidin-1-yl)methanone]	> 10	0.264
CC(OC(=O)N1CCc2cc(-c3ncc(F)c(Nc4ccc5c(=O)[nH]ccc5c4)n3)ccc2C1)C(F)(F)F (centres unmarked) [C39, 1,1,1-trifluoro-propan-2-yl 6-(5-fluoro-4-((1-oxo-1,2-dihydro-isoquinolin-6-yl)amino)pyrimidin-2-yl)-3,4-dihydro-isoquinolin-2(1H)-carboxylate]	> 10	0.102
CC(OC(=O)N1CCc2cc(-c3nccc(Nc4ccc5c(c4)CCNC5=O)n3)ccc2C1)C(F)(F)F (centres unmarked) [C40, 1,1,1-trifluoro-propan-2-yl 6-(4-((1-oxo-1,2,3,4-tetrahydro-isoquinolin-6-yl)amino)pyrimidin-2-yl)-3,4-dihydro-isoquinolin-2(1H)-carboxylate]	> 10	0.27
O=C1NCCc2cc(Nc3nc(-c4ccc5c(c4)CN(C(=O)N4CCC(F)(F)CC4)C5)ncc3F)ccc21 [C41, 6-((2-(2-(4,4-difluoro-piperidine-1-carbonyl)isoindolin-5-yl)-5-fluoro-pyrimidin-4-yl)amino)-3,4-dihydro-isoquinolin-1(2H)-one]	> 10	0.151
CC(C)(C)OC(=O)N1CCc2sc(-c3ncc(F)c(Nc4ccc5c(c4)CCNC5=O)n3)cc2C1 [C42, tert-butyl 2-(5-fluoro-4-((1-oxo-1,2,3,4-tetrahydroisoquinolin-6-yl)amino)pyrimidin-2-yl)-6,7-dihydrothieno[3,2-c]pyridine-5(4H)-carboxylate]	> 10	0.031
O=C(N1CCc2cc(-c3nccc(Nc4ccc5c(=O)[nH]ccc5c4)n3)ccc2C1)N1CC(F)(F)C1 [C44, 6-((2-(2-(3. 3-difluoro-azetidine-1-carbonyl)-1,2,3,4-tetrahydro-isoquinolin-6-yl)pyrimidin-4-yl)amino) isoquinolin-1(2H)-one]	> 10	0.057
CC(OC(=O)N1CCc2sc(-c3ncc(F)c(Nc4ccc5c(=O)[nH]ccc5c4)n3)cc2C1)C(F)(F)F (centres unmarked) [C46, 1,1,1-trifluoropropan-2-yl 2-(5-fluoro-4-((1-oxo-1,2-dihydroisoquinolin-6-yl)amino)pyrimidin-2-yl)-6,7-dihydrothieno[3,2-c]pyridine-5(4H)-carboxylate]	> 10	0.021
CC(CC(=O)N1CCc2sc(-c3ncc(F)c(Nc4ccc5c(=O)[nH]ccc5c4)n3)cc2C1)C(F)(F)F (centres unmarked) [C47, 6-((5-fluoro-2-(5-(4,4,4-trifluoro-3-methylbutanoyl)-4,5,6,7-tetrahydrothieno[3,2-c]pyridin-2-yl)pyrimidin-4-yl)amino)isoquinolin-1(2H)-one]	> 10	0.015
CC(CC(=O)N1Cc2ccc(-c3nccc(Nc4ccc5c(=O)[nH]ccc5c4)n3)cc2C1)C(F)(F)F (centres unmarked) [C48, 6-((2-(2-(4,4,4-trifluoro-3-methyl-butanoyl)isoindolin-5-yl)pyrimidin-4-yl)amino) isoquinolin-1(2H)-one]	> 10	0.013
CC(CC(=O)N1CCc2sc(-c3nccc(Nc4ccc5c(=O)[nH]ccc5c4)n3)cc2C1)C(F)(F)F (centres unmarked) [C49, 6-((2-(5-(4,4,4-trifluoro-3-methylbutanoyl)-4,5,6,7-tetrahydrothieno[3,2-c]pyridin-2-yl)pyrimidin-4-yl)amino)isoquinolin-1(2H)-one]	> 10	0.007
CC(CC(=O)N1Cc2ccc(-c3nc(Nc4ccc5c(=O)[nH]ccc5c4)c4ccccc4n3)cc2C1)C(F)(F)F (centres unmarked) [C50]	> 10	0.28
CC(C)(C)CC(=O)N1Cc2ccc(-c3ncc(F)c(Nc4ccc5c(=O)[nH]ccc5c4)n3)cc2C1 [C51, 6-((2-(2-(3,3-dimethyl-butanoyl)isoindolin-5-yl)-5-fluoro-pyrimidin-4-yl)amino) isoquinolin-1(2H)-one]	> 10	0.053
CC(C)(C)CC(=O)N1CCc2sc(-c3ncc(F)c(Nc4ccc5c(c4)CCNC5=O)n3)cc2C1 [C53, 6-((2-(5-(3,3-dimethylbutanoyl)-4,5,6,7-tetrahydrothieno [3,2-c]pyridin-2-yl)-5-fluoropyrimidin-4-yl)amino)-3,4-dihydroisoquinolin-1(2H)-one]	> 10	0.135
O=C(C1CC(F)(F)C1)N1Cc2ccc(-c3nccc(Nc4ccc5c(=O)[nH]ccc5c4)n3)cc2C1 [C54, 6-((2-(2-(3,3-difluoroocyclobutane-1-carbonyl)isoindolin-5-yl)pyrimidin-4-yl)amino)isoquinolin-1(2H)-one]	> 10	0.017
CC(CC(=O)N1CCc2sc(-c3ncc(F)c(Nc4ccc5c(c4)CCNC5=O)n3)cc2C1)C(F)(F)F (centres unmarked) [C55, 6-((5-fluoro-2-(5-(4,4,4-trifluoro-3-methylbutanoyl)-4,5,6,7-tetrahydrothieno[3,2-c]pyridin-2-yl)pyrimidin-4-yl)amino)-3,4-dihydroisoquinolin-1(2H)-one]	> 10	0.051
CC(C)(C)CC(=O)N1Cc2ccc(-c3nccc(Nc4ccc5c(=O)[nH]ccc5c4)n3)cc2C1 [C56, 6-((2-(2-(3,3-dimethyl-butanoyl)isoindolin-5-yl)pryimidin-4-yl)amino) isoquinolin-1(2H)-one]	> 10	0.024
CC(C)(C)CC(=O)N1CCc2sc(-c3nccc(Nc4ccc5c(=O)[nH]ccc5c4)n3)cc2C1 [C57, 6-((2-(5-(3,3-dimethylbutanoyl)-4,5,6,7-tetrahydrothieno[3,2-c]pyridin-2-yl)pyrimidin-4-yl)amino)isoquinolin-1(2H)-one]	> 10	0.016
CC(OC(=O)N1CCc2sc(-c3nccc(Nc4ccc5c(c4)CCNC5=O)n3)cc2C1)C(F)(F)F (centres unmarked) [C59, 1,1,1-trifluoropropan-2-yl 2-(4-((1-oxo-1,2,3,4-tetrahydroisoquinolin-6-yl)amino)pyrimidin-2-yl)-6,7-dihydrothieno[3,2-c]pyridine-5(4H)-carboxylate]	> 10	0.033
CC(OC(=O)N1CCc2sc(-c3ncc(F)c(Nc4ccc5c(=O)[nH]ncc5c4)n3)cc2C1)C(F)(F)F (centres unmarked) [C60, 1,1,1-trifluoropropan-2-yl 2-(5-fluoro-4-((1-oxo-1,2-dihydrophthalazin-6-yl)amino)pyrimidin-2-yl)-6,7-dihydrothieno[3,2-c]pyridine-5(4H)-carboxylate]	> 10	0.013
O=C1NCCc2cc(Nc3nc(-c4cc5c(s4)CCN(C(=O)OC(C(F)(F)F)C(F)(F)F)C5)ncc3F)ccc21 [C61, 1,1,1,3,3,3-hexafluoropropan-2-yl 2-(5-fluoro-4-((1-oxo-1,2,3,4-tetrahydroisoquinolin-6-yl)amino)pyrimidin-2-yl)-6,7-dihydrothieno[3,2-c]pyridine-5(4H)-carboxylate]	> 10	0.17
O=C(N1Cc2ccc(-c3ncc(F)c(Nc4ccc5c(=O)[nH]ccc5c4)n3)cc2C1)C(F)(F)F [C62]	> 10	0.139
O=C(CCC(F)(F)F)N1Cc2ccc(-c3ncc(F)c(Nc4ccc5c(=O)[nH]ccc5c4)n3)cc2C1 [C63, 6-((5-fluoro-2-(2-(4,4,4-trifluoro-butanoyl)isoindolin-5-yl)pyrimidin-4-yl)amino) isoquinolin-1(2H)-one]	> 10	0.024
O=C1NCCc2cc(Nc3nc(-c4ccc5c(c4)CN(C(=O)CCC(F)(F)F)C5)ncc3F)ccc21 [C64, 6-((5-fluoro-2-(2-(4,4,4-trifluoro-butanoyl)isoindolin-5-yl)pyrimidin-4-yl)amino)-3,4-dihydro-isoquinolin-1(2H)-one]	> 10	0.109
C[C@@H](OC(=O)N1CCc2sc(-c3ncc(F)c(Nc4ccc5c(c4)CCNC5=O)n3)cc2C1)C(F)(F)F [C65, (R)-1,1,1-trifluoropropan-2-yl 2-(5-fluoro-4-((1-oxo-1,2,3,4-tetrahydroisoquinolin-6-yl)amino)pyrimidin-2-yl)-6,7-dihydrothieno[3,2-c]pyridine-5(4H)-carboxylate]	> 10	0.08
